Test results: US20100016300A1, “Imidazoacridine Compounds for Treating FLT3-Mediated Disorders” (priority 2006, published 2010)
Substitutions are numbered along the chain they refer to. Read-outs that look alike come from different tables or passages of the source. Each block holds one molecule with its values, some of them ahead of it.

Columns and labels:
FLT3 [1] = target: T1, FLT3 (Homo sapiens, UniProt P36888); assay: SelectScreen in vitro dose response assay against FLT3 (Example 7); assay type: biochemical; details: ATP at 100 micromolar; 4 parameter Hill equation
T1 construct: the juxtamembrane, ATP and catalytic components projecting from the cell membrane into the cytosol have been expressed through recombinant genetic techniques; purchased Invitrogen, Inc. (SelectScreen platform)
T1 sequence (P36888 564-993 limits assumed): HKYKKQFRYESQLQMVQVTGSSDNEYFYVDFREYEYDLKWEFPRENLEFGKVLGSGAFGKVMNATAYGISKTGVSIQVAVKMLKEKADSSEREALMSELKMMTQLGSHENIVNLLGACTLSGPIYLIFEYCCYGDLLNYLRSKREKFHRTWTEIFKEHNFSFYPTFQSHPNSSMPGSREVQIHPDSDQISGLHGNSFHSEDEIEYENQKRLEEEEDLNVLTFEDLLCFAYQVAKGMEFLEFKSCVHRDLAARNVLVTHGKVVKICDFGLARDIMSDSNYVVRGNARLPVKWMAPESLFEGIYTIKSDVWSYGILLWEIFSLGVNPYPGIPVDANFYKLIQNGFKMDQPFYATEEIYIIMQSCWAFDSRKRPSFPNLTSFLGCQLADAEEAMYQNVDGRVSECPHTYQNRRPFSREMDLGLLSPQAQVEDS
Procedure: The terms “IC50” and “EC50” are used interchangeably. As used herein, “EC50” refers to nMolar concentration at median percent inhibition determined by dose respose (DR) assay. As used herein, the term “E1000” refers to percent inhibition at 1000 nMolar determined by assay. EC50 was calculated based on dose response curve was fitted to 4 parameter Hill equation.
The compounds were then re-tested by adding graded amounts of putative inhibitor which were added in 5 separate increments to generate a dose response curve. The latter is obtained by fitting to a 4 parameter Hill equation, a sigmoid saturation equation.
The 2× FLT3/Tyr 02 peptide mixture was prepared in 50 mM HEPES pH 7.5, 0.01 BRIJ-35, 10 mM MgCl2, 1 mM EGTA. The final 10 uL kinase reaction consists of 0.6-76.0 ng FLT3 and 2 uM Tyr 02 peptide in 50 mM HEPES pH 7.5, 0.01% BRIJ-35, 10 mM Mg Cl2, 1 mM EGTA. After 1 hour kinase reaction incubation, 5 uL of a 1:64 dilution of development reagent A was added.

NTRK1 = NTRK1 (Homo sapiens, UniProt P04629); assay: Kinase selectivity analysis (FIG. 4A), NTRK1; assay type: biochemical; details: in words
NTRK1, sequence (P04629 33-796): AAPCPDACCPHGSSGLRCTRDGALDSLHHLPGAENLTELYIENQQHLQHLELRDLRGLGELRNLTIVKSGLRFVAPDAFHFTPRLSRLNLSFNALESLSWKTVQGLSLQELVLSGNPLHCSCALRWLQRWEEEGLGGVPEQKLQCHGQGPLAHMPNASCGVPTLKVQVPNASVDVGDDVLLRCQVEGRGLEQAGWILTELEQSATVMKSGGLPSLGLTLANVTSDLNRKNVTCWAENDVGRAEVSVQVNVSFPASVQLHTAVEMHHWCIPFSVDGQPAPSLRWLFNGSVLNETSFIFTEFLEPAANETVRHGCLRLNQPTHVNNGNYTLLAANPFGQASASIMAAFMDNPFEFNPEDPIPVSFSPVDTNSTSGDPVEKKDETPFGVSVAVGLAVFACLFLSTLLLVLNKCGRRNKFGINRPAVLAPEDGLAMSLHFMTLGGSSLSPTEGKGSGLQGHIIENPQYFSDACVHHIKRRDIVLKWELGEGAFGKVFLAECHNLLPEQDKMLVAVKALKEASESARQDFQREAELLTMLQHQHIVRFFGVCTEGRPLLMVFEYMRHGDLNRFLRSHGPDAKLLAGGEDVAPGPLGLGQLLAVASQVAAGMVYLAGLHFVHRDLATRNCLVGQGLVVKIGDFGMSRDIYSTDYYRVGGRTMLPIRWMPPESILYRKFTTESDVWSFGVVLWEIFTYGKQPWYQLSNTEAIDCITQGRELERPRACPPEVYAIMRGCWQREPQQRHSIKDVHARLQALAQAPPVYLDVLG
Description: (§1) The IC50 value is, therefore, a measure of potency. Another important feature is specificity.

FGFR2 = target: T2, FGFR2 (Homo sapiens, UniProt P21802); assay: SelectScreen in vitro kinase screen, FGFR2; assay type: biochemical
T2 construct: the juxtamembrane, ATP and catalytic components projecting from the cell membrane into the cytosol have been expressed through recombinant genetic techniques; purchased Invitrogen, Inc. (SelectScreen platform)
T2 sequence (P21802 399-821 limits assumed): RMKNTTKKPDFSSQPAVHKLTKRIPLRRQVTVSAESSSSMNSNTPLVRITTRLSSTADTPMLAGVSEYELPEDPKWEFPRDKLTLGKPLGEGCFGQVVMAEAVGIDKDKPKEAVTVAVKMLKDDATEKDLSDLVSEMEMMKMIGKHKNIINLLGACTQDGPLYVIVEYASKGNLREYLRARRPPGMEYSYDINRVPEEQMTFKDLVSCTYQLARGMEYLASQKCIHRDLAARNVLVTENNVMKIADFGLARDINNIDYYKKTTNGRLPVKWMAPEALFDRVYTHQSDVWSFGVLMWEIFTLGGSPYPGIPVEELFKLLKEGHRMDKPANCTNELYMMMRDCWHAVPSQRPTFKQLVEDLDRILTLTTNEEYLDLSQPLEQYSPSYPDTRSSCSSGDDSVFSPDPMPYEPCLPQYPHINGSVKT
Description: as §1

RS4(11) cells = assay: Cell viability in RS4(11) cells; assay type: cell-based, human
Description: (§2) It is now understood that an important subset of human myeloid leukemia cells overexpress FLT3 as constitutively activated mutations. The most prevalent of these is the internal tandem duplication. Two cell lines commonly used to test the potency of FLT3 inhibitors on cell growth and viability are the RS4(11) and MV4(11). The RS4(11) cell line, also known as RS4;11, was established from a bone marrow patient with acute lymphoblastic leukemia. This patient was […]. The cells lack surface and cytoplasmic immunoglobulin, and are negative for CD10. The cells have a characteristic chromosome translocation (4;11)(q21;q23), and an isochromosome for the long arm of chromosome 7. These cells express the wild-type FLT3 receptor and are further characterized by expression of the MHC Class II antigens (HLA DR+); CD9+; CD24+. The MV4(11) cell line, also known as MV-4-11, was established from the blast cells of a person with biphenotypic B myelomonocytic leukemia (ATCC). Other sources indicate this cell line is derived from acute monocytic leukemia (AML FAB M5). […] These cells express a mutant form of FLT3 containing an internal tandem duplication (ITD), and are further characterized by expression of CD4 (40-96%); CD10 (4-11%); CD15 (96-99%). […]

FLT3 [2] = target: T1, FLT3; assay: SelectScreen in vitro kinase screen, FLT3 (Example 2); assay type: biochemical; details: for activity against FLT3: in words
Description: as §1

[3] = tested on: KDR, PDGF and TRK members of the RTK family; assay: SelectScreen in vitro kinase screen, closely related RTKs; assay type: biochemical; details: in words, relative to FLT3
Description: as §1

MV4(11) cells = assay: Cell viability in MV4(11) cells; assay type: cell-based, human; details: FLT3 ITD, compared with PKC412
Description: as §2

FLT3 D835Y = target: T3, FLT3 D835Y (Homo sapiens, UniProt P36888, D835Y); assay: SelectScreen in vitro kinase screen, FLT3 mutant; assay type: biochemical; details: in words
T3 construct: the juxtamembrane, ATP and catalytic components projecting from the cell membrane into the cytosol have been expressed through recombinant genetic techniques; purchased Invitrogen, Inc. (SelectScreen platform)
T3 sequence (P36888 564-993 D835Y limits assumed): T1 sequence (P36888 564-993 limits assumed) with D272Y
Description: as §1

HL-60 leukemia = assay: Growth arrest in HL-60 leukemia; details: Homo sapiens, HL-60, read-out: EC50 growth arrest
Procedure: When standard protocols for adherent cell culture are followed, according to the instructions supplied by the American Type Culture Collection for the two line, the cell will proliferate with an approximate 30 hour doubling time.

PKC = assay: Kinase selectivity analysis (FIG. 4A), PKC; assay type: biochemical; details: in words
Procedure: (§3) Testing of the compounds described in this invention was carried out using the SelectScreen™ platform from Invitrogen, Inc. (Carlsbad, Calif., USA) and the details of its performance are readily viewed via the web by linking to: http://www.invitrogen.com/downloads/SelectScm_Brochure.pdf.
(§4) Briefly the approach is based on treating each specific kinase with a unique substrate and optical reporter system in the presence of ATP at 100 micromolar or at the apparent optimal ATP concentration for each kinase. In controls, the substrate is phosphorylated and a baseline optimal response is recorded. Graded amounts of putative inhibitor are then added in separate increments to generate a dose response curve. The latter is obtained by fitting to a sigmoid saturation equation, such as the Hill equation, and the concentration of test article producing 50 per cent inhibition is then noted as the IC50. […] The IC50 value is, therefore, a measure of potency. Another important feature is specificity. It is considered a desirable property when claiming efficacy to determine how many kinases are inhibited by the same molecule. The fewer number inhibited points toward specificity; the greater to inhibitory promiscuity.
(§5) First the compounds of this invention were tested against a subset, the primary kinase screen, to determine initial activity at 1 and 0.1 micromolar concentrations.

PDGFRb = PDGFRb (Homo sapiens, UniProt P09619); assay: Kinase selectivity analysis (FIG. 4A), PDGFRb; assay type: biochemical; details: in words
PDGFRb, sequence (P09619 33-1106): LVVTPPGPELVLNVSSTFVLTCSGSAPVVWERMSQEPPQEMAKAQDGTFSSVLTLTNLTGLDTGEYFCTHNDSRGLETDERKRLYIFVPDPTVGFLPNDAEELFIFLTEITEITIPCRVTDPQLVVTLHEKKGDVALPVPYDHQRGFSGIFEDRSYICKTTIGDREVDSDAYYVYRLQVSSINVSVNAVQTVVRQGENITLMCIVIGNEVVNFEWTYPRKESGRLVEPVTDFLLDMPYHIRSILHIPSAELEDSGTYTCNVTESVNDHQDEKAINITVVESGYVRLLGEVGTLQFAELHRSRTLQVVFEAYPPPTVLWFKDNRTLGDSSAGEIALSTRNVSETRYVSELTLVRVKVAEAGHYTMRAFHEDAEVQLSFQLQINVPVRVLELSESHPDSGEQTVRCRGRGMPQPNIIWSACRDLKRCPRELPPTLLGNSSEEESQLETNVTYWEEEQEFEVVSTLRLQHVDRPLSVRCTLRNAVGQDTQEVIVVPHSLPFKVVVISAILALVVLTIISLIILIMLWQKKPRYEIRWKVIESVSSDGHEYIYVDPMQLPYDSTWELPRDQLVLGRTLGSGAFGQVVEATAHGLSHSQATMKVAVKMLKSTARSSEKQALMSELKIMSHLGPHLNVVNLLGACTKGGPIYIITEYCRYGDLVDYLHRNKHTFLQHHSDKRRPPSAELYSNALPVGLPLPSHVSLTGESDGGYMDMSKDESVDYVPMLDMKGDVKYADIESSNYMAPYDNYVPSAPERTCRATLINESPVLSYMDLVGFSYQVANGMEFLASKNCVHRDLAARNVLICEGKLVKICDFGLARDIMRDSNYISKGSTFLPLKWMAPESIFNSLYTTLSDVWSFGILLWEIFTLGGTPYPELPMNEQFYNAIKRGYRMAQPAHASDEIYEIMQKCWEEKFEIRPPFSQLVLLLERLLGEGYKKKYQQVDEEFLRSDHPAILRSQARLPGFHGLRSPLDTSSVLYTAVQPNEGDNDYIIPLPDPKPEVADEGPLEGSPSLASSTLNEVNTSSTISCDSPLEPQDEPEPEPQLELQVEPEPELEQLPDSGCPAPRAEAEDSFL
Procedure: as §3, §4, §5

[4] = tested on: Experimental Autoimmune Encephalomyelitis (EAE); assay: Experimental autoimmune encephalomyelitis (EAE) in mice; assay type: in vivo, C57BL/6 mice; details: oral, from day 5: 10 mg/kg every 24 hrs, 20 mg/kg every 48 hrs, 30 mg/kg every 72 hrs; versus vehicle controls
Procedure: The EAE preparation used to test the efficacy of the imidazoacridinone analogs of the present invention followed a similar protocol as described by Small et al. (Patent Application WO 2006/020145 A2, 23 Feb. 2006) and was conducted by MD Biosciences, a contract research organization that provides in vivo and in vitro disease models as well as mode of action studies for general inflammatory screening, arthritis, IBD, and multiple sclerosis. C57BL/6 mice were immunized with proteolipid protein emulsified in Complete Freund's Adjuvant on day 0 of the study. After a booster with pertussis toxin also on day 0 and then on day 2, the mice were treated on day 5 after disease induction with three oral dosing schedules of XF-2, at 10 mg/kg every 24 hrs, 20 mg/kg every 48 hrs and 30 mg/kg every 72 hrs.

all the other RTK's = assay: SelectScreen in vitro kinase screen, other RTK and TK enzymes; assay type: biochemical; details: read-out: IC50 against all the other RTK's
Description: as §1

[5] = read-out: IC50 as FLT3 inhibitors (FIG. 3)

Structure (SMILES): C[C@]12O[C@H](C[C@]1(O)CO)n1c3ccccc3c3c4c(c5c6ccccc6n2c5c31)CNC4=O [CEP-701, reference compound]
- inhibition of NTRK1 (NTRK1): inhibits
- inhibition of FGFR2 (FGFR2; in words, FIG. 4A): inhibits

Structure (SMILES): O=c1c2cc(O)ccc2n2cnc3ccc(NCCN4CCOCC4)c1c32 [XF-22]
- EC50 cell viability, in words (RS4(11) cells; 72 hrs, compared with PKC-412): closer to the micromolar mark
- activity against FLT3 (FLT3 [2]): active
- IC50 (FLT3 [2]; [5]): 12 nM
- inhibitory activity against KDR, PDGF and TRK members of the RTK family [3]: many fold less pronounced
- cell viability potency, in words (MV4(11) cells): less activity
- activity against FLT3 mutant form (FLT3 D835Y): active
- EC50 (HL-60 leukemia): > 10000 nM

Structure (SMILES): O=c1c2c(NCCN3CCOCC3)ccc3ncn(c4ccc5[nH]ncc5c14)c32 [XF-0122]
- EC50 (FLT3 [1]): 51 nM

Structure (SMILES): CO[C@@H]1[C@H](N(C)C(=O)c2ccccc2)C[C@H]2O[C@]1(C)n1c3ccccc3c3c4c(c5c6ccccc6n2c5c31)C(=O)NC4 [PKC-412]
- cross-reaction with PKC (PKC): cross-reacts
- cross-reaction with PDGFRb (PDGFRb): cross-reacts

Structure (SMILES): CCN(CC)CCNc1ccc2ncn3c4ccc(O)cc4c(=O)c1c23 [XF-2]
- EC50 (RS4(11) cells; Homo sapiens, read-out: effective concentration to decrement cell viability by 50% (EC50), 72 hrs of continuous exposure): 34 nM
- activity against FLT3 (FLT3 [2]): active
- IC50 (FLT3 [2]; read-out: IC50 against FLT3): ~10 nM
- IC50 (FLT3 [2]; [5]): 8 nM
- inhibitory activity against KDR, PDGF and TRK members of the RTK family [3]: many fold less pronounced
- cell viability potency, in words (MV4(11) cells): closely matched
- activity against FLT3 mutant form (FLT3 D835Y): active
- clinical scores [4]: lower clinical scores
- drop of inhibitory activity on FGFR2 relative to FLT3, in EC50 value (FGFR2; FGFR2 versus FLT3): 100 fold
- IC50 (FGFR2; read-out: IC50 against FGFR2): > 2000 nM
- IC50 (all the other RTK's): > 5000 nM
- EC50 (HL-60 leukemia): > 10000 nM

The next lines start with the values.

- EC50 (FLT3 [1]): 50 nM
Structure (SMILES): O=c1c2cc(O)ccc2n2cnc3ccc(NCCN4CCCC4)c1c32 [XF-0241]

- EC50 (FLT3 [1]): 25 nM
Structure (SMILES): CN(C)CCNc1ccc2ncn3c4ccc(O)cc4c(=O)c1c23 [XF-0025]

- EC50 (FLT3 [1]): 135 nM
Structure (SMILES): O=c1c2ccccc2n2cnc3ccc(NCCNCCO)c1c32 [XF-0328]

- EC50 (FLT3 [1]): 133 nM
Structure (SMILES): CN(C)CCNc1ccc2ncn3c4ccccc4c(=O)c1c23 [XF-0308]

- EC50 (FLT3 [1]): 50 nM
- activity against FLT3 (FLT3 [2]): active
- inhibitory activity against KDR, PDGF and TRK members of the RTK family [3]: many fold less pronounced
- activity against FLT3 mutant form (FLT3 D835Y): active
Structure (SMILES): O=c1c2cc(O)ccc2n2cnc3ccc(NCCCN4CCOCC4)c1c32 [XF-0113]
